These results are taken from ChEMBL document CHEMBL1125968, “5-HT2 antagonist activity of 3-aminomethyltetralones” (Bioorg Med Chem Lett, 1991).

One assay is filed under the species Rattus norvegicus. Put plainly: Tested for the antagonistic activity against serotonin-induced contractions in rat aorta ring strip of endothelium. It counts as functional, organism-based. To be noted: read-out: pA2 (converted).
Assay [1] deals with Serotonin 2 (5-HT2) receptor (Rattus norvegicus, UniProt P30994+P08909+P14842). The assay is described as follows: Tested for the binding affinity towards 5-HT2 receptor measured by [3H]ketanserin binding to frontal cerebral cortex membranes of rat. The class given is tissue-based, Membrane.

As to `O=C1CC(CN2CCC(C(=O)c3ccc(F)cc3)CC2)Cc2ccccc21` (stereo unspecified), in the assay filed under Rattus norvegicus, the Kb was 13.8 nM.

`COc1ccccc1N1CCN(CC2CC(=O)c3ccccc3C2)CC1` (stereo unspecified): the Kb in the assay filed under Rattus norvegicus is 513 nM. Also, in assay [1], the “Log Ki” value was -6.48.

For the molecule `O=C(CCCN1CCN(CC2CC(=O)c3ccccc3C2)CC1)c1ccc(F)cc1` (stereo unspecified), the “Log Ki” value in assay [1] was -7.25.

Consider `O=C(CCCN1CCN(CC2CC(=O)c3ccc(F)cc3C2)CC1)c1ccc(F)cc1` (stereo unspecified), for which the Kb in the assay listed under Rattus norvegicus was 56.2 nM. In addition, the “Log Ki” value in assay [1] is given as -7.29.
